{"source": "patent US20240299406A1", "about": "“NEURONAL NICOTINIC ACETYLCHOLINE RECEPTOR PARTIAL AGONISTS AS THERAPEUTICS FOR CHRONIC TINNITUS” (Board of Trustees of Southern Illinois University, priority 2019, published 2024)", "key": {"[1]": {"tested_on": "rats with behavioral evidence of tinnitus", "experiment": "operant conditioned-suppression behavioral test for tinnitus (suppression ratio, 20 kHz test series)", "type": "in vivo, Long Evans rats", "conditions": "for evidence of tinnitus: SC injection", "from_the_text": "Unilaterally sound-exposed animals were used to study the effects of sazetidine on tinnitus. Experiments used an established behavioral psychoacoustic test to determine whether sazetidine could ameliorate tinnitus in subjects (rats) with behavioral evidence of tinnitus. Three months following sound-exposure, animals with tinnitus show consistent difficulty identifying silence. Sounds of varying intensity/levels were presented to sound-exposed (tinnitus) and unexposed (non-tinnitus control) subjects. The animals' behavior, quantified as a suppression ratio, indicated their level of tinnitus. Greater suppression, i.e., a decrease in lever pressing, indicates the presence of tinnitus.\nThe present study examined the potential therapeutic effect of sazetidine and varenicline to ameliorate tinnitus in rats with behavioral evidence of tinnitus. For two decades, an operant-behavior model has been used to investigate tinnitus pathology. In this model, animals are taught to attend closely to their auditory sensations using a conditioned suppression procedure: Animals lever press for food pellets in the presence of low-level background sounds, randomly punctuated by sound-off (silence) periods. Sound-off (silence) lever pressing earns food pellets but leads to a mild foot shock at the conclusion of the sound off presentation. The animals are therefore conditioned to stop lever pressing when the external sound is off, i.e., conditioned suppression. In this paradigm, the animals are conditioned to attend to their sound environment, and when tones of different frequencies and levels/intensities are substituted for some of the sound-off periods, the attendant behavior can be used to derive psychometric functions indicative of tinnitus.\nSixteen, 96-day old Long Evans rats (Envigo, Indianapolis, IN, USA) were anesthetized with a 1.7 percent isoflurane/02 mixture, placed in a head holder. A Fostex speaker (FT17H, Akashima, Japan) was attached to a 2 cm length of flexible tubing positioned at the entrance of the right ear canal. Eight randomly selected rats were unilaterally exposed once to band-limited noise for 1 hr, with a peak level of 120 dB (SPL) centered at 16 kHz, falling to ambient levels at 8 kHz and 24 kHz. During sound-exposure, the contralateral canal was obstructed by a canal-fitted plastic plug/tube from the contralateral speaker. Auditory brainstem responses (ABRs), which measure hearing, were obtained before and after exposure for pure tones at 8, 10, 12, 16, 20, 24, and 32 kHz, presented in 10 dB decrements between 95 and 5 dB (SPL re […]). Eight unexposed animals were similarly tested. Tinnitus testing began 3 months following sound-exposure and hearing-level determination.\nSazetidine A dihydrochloride (batch 2A/187725) was obtained in solid form, from Tocris Bioscience (Minneapolis, MN, USA). The drug was dissolved in sterile normal saline at a concentration of 2 mg/ml, or less, and administered as a subcutaneous injection (SC) 1 hour prior to behavioral testing.\nVarenicline, varenicline tartrate, was purchased from Santa Cruz Biotechnology, Inc. (Dallas, Texas, USA). The drug was dissolved in sterile normal saline at a concentration of 1 mg/ml, or less, and administered as a SC injection 1 hour prior to behavioral testing.\n(§1) Sterile normal saline was considered a pharmaceutically acceptable carrier, but other pharmaceutically acceptable carriers may also be used as a substitute. All animals, unexposed controls and sound-exposed, were drug treated and tested in parallel. […] Dose levels of 0.1, 0.5, and 1 mg/kg were tested for therapeutic effect, over a minimum of 3 consecutive days for each dose level. Washout periods of 1 to 5 weeks (5 test sessions per week) intervened between drug-testing, as required to recover pre-drug baseline tinnitus performance.\nPrior to the start of drug testing, each group was optimized to five rats per group. […]"}, "[2]": {"tested_on": "rats with behavioral evidence of tinnitus", "experiment": "operant conditioned-suppression behavioral test for tinnitus (suppression ratio, 20 kHz test series)", "type": "in vivo, Long Evans rats", "conditions": "0.5 mg/kg; 12 animals with tinnitus compared to 8 unexposed controls"}, "α4β2 nAChRs": {"target": "α4β2 nAChRs (Homo sapiens, UniProt P17787+P43681)", "sequence (P43681 29-627 limits assumed)": "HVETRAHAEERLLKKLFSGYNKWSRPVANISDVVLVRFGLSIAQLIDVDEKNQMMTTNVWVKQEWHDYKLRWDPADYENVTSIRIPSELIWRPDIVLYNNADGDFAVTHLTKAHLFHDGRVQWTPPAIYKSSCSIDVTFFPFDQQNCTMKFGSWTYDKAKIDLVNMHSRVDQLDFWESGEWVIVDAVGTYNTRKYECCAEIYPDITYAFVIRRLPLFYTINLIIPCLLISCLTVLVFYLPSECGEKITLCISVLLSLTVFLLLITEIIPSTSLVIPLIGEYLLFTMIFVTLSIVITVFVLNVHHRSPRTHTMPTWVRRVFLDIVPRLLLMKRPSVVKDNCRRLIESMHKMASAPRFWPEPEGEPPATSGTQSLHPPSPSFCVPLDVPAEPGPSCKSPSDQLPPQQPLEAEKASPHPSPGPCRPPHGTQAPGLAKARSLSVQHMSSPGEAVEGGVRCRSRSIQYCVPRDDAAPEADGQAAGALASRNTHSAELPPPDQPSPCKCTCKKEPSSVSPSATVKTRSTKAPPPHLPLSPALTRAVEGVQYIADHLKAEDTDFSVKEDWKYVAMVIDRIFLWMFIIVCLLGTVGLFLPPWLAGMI", "sequence (P17787 26-502)": "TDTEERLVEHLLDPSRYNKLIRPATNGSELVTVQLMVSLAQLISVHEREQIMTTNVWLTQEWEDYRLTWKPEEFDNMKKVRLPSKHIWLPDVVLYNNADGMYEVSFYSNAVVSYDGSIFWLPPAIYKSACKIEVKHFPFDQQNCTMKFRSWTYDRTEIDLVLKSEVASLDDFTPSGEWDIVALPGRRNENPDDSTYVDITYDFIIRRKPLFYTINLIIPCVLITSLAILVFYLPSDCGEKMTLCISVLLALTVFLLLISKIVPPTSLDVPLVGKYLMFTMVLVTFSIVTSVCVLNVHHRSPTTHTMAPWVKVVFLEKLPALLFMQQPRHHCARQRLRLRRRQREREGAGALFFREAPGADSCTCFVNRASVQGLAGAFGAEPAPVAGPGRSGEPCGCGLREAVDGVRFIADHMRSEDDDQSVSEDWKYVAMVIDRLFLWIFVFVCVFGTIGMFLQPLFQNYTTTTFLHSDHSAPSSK", "conditions": "cited from earlier work; for affinity for β2-containing nAChRs: partial nAChR agonists"}, "α3β4 nAChRs [3]": {"target": "T1, α3β4 nAChRs (Homo sapiens, UniProt P30926+P32297)", "T1 sequence (P32297 32-505)": "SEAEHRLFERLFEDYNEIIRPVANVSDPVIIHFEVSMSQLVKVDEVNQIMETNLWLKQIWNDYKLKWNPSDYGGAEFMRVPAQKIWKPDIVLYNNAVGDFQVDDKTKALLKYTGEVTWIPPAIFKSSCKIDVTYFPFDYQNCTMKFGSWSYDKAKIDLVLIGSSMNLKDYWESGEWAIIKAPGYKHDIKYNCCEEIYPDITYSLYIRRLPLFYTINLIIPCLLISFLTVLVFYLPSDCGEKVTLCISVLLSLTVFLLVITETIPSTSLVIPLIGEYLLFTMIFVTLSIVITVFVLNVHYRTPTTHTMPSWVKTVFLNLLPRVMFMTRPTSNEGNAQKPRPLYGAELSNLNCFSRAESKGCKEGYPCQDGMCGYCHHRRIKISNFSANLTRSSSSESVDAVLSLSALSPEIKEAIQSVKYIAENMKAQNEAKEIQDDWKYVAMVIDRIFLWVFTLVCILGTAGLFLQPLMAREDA", "T1 sequence (P30926 22-498)": "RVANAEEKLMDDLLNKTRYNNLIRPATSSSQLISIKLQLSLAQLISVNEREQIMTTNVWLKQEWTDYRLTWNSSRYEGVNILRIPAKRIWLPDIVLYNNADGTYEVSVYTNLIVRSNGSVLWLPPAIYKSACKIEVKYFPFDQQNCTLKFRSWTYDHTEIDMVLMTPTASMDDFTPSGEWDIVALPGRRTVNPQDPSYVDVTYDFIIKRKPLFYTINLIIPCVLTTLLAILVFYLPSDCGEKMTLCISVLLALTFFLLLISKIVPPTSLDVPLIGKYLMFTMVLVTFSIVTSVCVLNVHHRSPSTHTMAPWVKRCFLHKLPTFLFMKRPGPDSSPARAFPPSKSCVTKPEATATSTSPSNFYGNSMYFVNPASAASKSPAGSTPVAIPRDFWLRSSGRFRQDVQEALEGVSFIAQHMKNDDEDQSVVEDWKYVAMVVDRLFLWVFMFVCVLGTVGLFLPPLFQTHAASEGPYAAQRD", "conditions": "cited from earlier work"}, "α7 nAChRs [4]": {"target": "T2, α7 nAChRs (Homo sapiens, UniProt P36544)", "T2 sequence (P36544 23-502)": "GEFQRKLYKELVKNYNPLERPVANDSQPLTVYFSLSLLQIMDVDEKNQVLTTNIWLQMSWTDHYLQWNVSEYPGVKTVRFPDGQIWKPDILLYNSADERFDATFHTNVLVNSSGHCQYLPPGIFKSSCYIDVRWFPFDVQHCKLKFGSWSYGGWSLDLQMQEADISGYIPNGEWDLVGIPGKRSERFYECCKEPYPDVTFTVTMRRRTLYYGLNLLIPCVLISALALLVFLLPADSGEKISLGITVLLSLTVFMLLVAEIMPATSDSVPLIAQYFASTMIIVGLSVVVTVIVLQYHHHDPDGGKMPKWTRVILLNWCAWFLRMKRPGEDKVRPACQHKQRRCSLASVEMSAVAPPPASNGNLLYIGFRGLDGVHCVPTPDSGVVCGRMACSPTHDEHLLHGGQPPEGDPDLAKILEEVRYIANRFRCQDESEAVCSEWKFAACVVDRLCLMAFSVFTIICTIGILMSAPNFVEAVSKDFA", "conditions": "cited from earlier work"}, "α3β4 nAChRs [5]": {"target": "T1, α3β4 nAChRs", "conditions": "at lower affinity; cited from earlier work"}, "α7 nAChRs [6]": {"target": "T2, α7 nAChRs", "conditions": "cited from earlier work", "remark": "listed apart in the source"}, "[7]": {"experiment": "non-specific drug effects (cage observation, session lever pressing)", "type": "in vivo, rats", "protocol": "FIG. 10 illustrates the data for a non-specific effect. The non-specific effects appeared 10 to 15 min after treatment but were not present 1 hr after treatment, i.e., at the beginning of the test period.\nas §1\nAt 1 mg/kg. […] Within 10 min of drug treatment all animals assumed a prone resting position in their home cage, which lasted about 10 min. Afterward animals resumed normal cage activity, e.g., moving about, grooming, sniffing. […] This behavior was not observed in washout or saline (vehicle) sessions, nor was it observed in the remaining 15 animals. Mild sedation was indicated by a decrease in total bar pressing at 1.0 mg/kg (FIG. 10)."}}, "note": "Entries after “also recorded” stand apart in the source; their conditions may differ.", "data": [{"smiles": "c1cnc2cc3c(cc2n1)C1CNCC3C1", "note": "[varenicline, 7,8,9,10-tetrahydro-6,10-methano-6H-pyrazino[2,3-h][3]-benzazepine]", "values": [{"measurement": "suppression curve of tinnitus animals versus unexposed control animals", "setting": "[1]; 0.5 mg/kg SC, FIG. 13", "result": "no longer significantly different"}, {"measurement": "linearity of tinnitus reduction across doses", "setting": "[1]; doses between 0.1 and 1.0 mg/kg", "result": "not-linear"}, {"measurement": "reduction of evidence of tinnitus", "setting": "[2]", "result": 47, "unit": "%"}, {"measurement": "concentration that desensitizes α4β2 nAChRs", "setting": "α4β2 nAChRs", "result": "low nanomolar concentrations"}, {"measurement": "affinity for β2-containing nAChRs", "setting": "α4β2 nAChRs", "result": "very high affinity"}, {"measurement": "selectivity for α4β2 nAChRs compared to α3β4 nAChRs", "setting": "α3β4 nAChRs [3]", "result": "4,000-5,000 fold"}, {"measurement": "selectivity for α4β2 nAChRs relative to α7 nAChRs", "setting": "α7 nAChRs [4]", "result": "4,000-5,000 fold"}, {"measurement": "type of action at α3β4 nAChRs", "setting": "α3β4 nAChRs [5]", "result": "partial agonist actions"}, {"measurement": "type of action at α7 nAChRs", "setting": "α7 nAChRs [6]", "result": "full agonist activity"}]}, {"smiles": "OCCCCC#Cc1cncc(OC[C@@H]2CCN2)c1", "note": "[sazetidine]", "values": [{"measurement": "therapeutic effect on tinnitus", "setting": "[1]; 0.1 mg/kg SC, FIG. 9", "result": "potentially weak therapeutic effect"}, {"measurement": "tinnitus dose-response (tinnitus suppression ratio)", "setting": "[1]; 0.1 mg/kg to 1.0 mg/kg SC, FIG. 11", "result": "Therapeutic effect increased with dose; also recorded: effectiveness increases as the dose is increased"}, {"measurement": "suppression curve of tinnitus animals versus unexposed control animals", "setting": "[1]; 0.5 mg/kg SC, FIG. 8", "result": "no longer significantly different"}, {"measurement": "suppression curve of tinnitus animals versus unexposed control animals", "setting": "[1]; 1 mg/kg SC, first test, FIG. 2", "result": "no longer significantly different"}, {"measurement": "suppression curve of tinnitus animals versus unexposed control animals", "setting": "[1]; 1 mg/kg SC, second test (1st replication), FIG. 5", "result": "again no longer significantly different"}, {"measurement": "therapeutic effect on tinnitus", "setting": "[1]; 1 mg/kg SC, third test (2nd replication), one week after 1st replication, FIG. 6", "result": "No therapeutic effect was observed"}, {"measurement": "evidence of tinnitus", "setting": "[1]; 0.1 mg/kg", "result": "significantly reduced evidence of tinnitus"}, {"measurement": "evidence of tinnitus", "setting": "[1]; 0.5 mg/kg", "result": "effectively and significantly decreased evidence of tinnitus"}, {"measurement": "evidence of tinnitus", "setting": "[1]; 1 mg/kg", "result": "effectively and significantly decreased evidence of tinnitus"}, {"measurement": "dose level at which statistical effectiveness begins", "setting": "[1]; SC, FIG. 11", "result": "about 0.5 mg/kg"}, {"measurement": "suppression curve of tinnitus animals versus unexposed control animals", "setting": "[1]; five weeks following initial treatment, saline SC before test, FIG. 4", "result": "again statistically significantly different"}, {"measurement": "suppression curve of tinnitus animals versus unexposed control animals", "setting": "[1]; one week following initial treatment, washout, FIG. 3", "result": "remain similar to control"}, {"measurement": "tinnitus-related symptoms/lever pressing", "setting": "[1]; treatment 1 hour before testing", "result": "decreased tinnitus-related symptoms/lever pressing"}, {"measurement": "sedation (decrease in total bar pressing)", "setting": "[7]; 1.0 mg/kg, FIG. 10", "result": "Mild sedation"}, {"measurement": "excess salivation, share of animals", "setting": "[7]; 1.0 mg/kg, visual evidence", "result": "about a third of the animals"}, {"measurement": "non-specific effects at the beginning of the test period", "setting": "[7]; 1 hr after treatment, FIG. 10", "result": "not present"}, {"measurement": "non-specific drug effects", "setting": "[7]; FIG. 10", "result": "evident at 1 mg/kg"}, {"measurement": "time of appearance of non-specific effects after treatment", "setting": "[7]; FIG. 10", "result": "10 to 15", "unit": "min"}, {"measurement": "time to prone resting position in home cage, all animals", "setting": "[7]; after drug treatment", "result": "≤ 10", "unit": "min"}, {"measurement": "sedation (decrease in session lever pressing)", "setting": "[7]; higher doses, FIG. 10", "result": "some general sedation"}, {"measurement": "duration of prone resting position", "setting": "[7]; rat, in vivo", "result": "about 10 min"}, {"measurement": "drug-dependent agitation, animals affected", "setting": "[7]; sound-exposed animal without evidence of tinnitus", "result": "One animal (out of 16)"}, {"measurement": "concentration that desensitizes α4β2 nAChRs", "setting": "α4β2 nAChRs", "result": "low nanomolar concentrations"}, {"measurement": "affinity for β2-containing nAChRs", "setting": "α4β2 nAChRs", "result": "very high affinity"}, {"measurement": "selectivity for α4β2 nAChRs compared to α3β4 nAChRs", "setting": "α3β4 nAChRs [3]", "result": "> 20,000 fold"}, {"measurement": "selectivity for α4β2 nAChRs relative to α7 nAChRs", "setting": "α7 nAChRs [4]", "result": "3,500 fold"}]}]}
